SMILES strings stand for the structures.

The target in one test is T1, C-RAF (Homo sapiens, UniProt P04049, Y340E/Y341E).
T1 construct: His tag (implied by nickel chromatography) (cleaved yes); StrepII tag (cleaved yes); made in house; host or cells: Sf9 insect cells (baculovirus), CRAF and h14-3-3 zeta co-expressed; MEK1 substrate from E. coli
In words: In vitro Raf activity determination (Alpha Screen, biotinylated kinase-dead MEK1 substrate), C-Raf. The class given is biochemical. To be noted: c-Raf approximately 4 nM; ATP 1 μM; pre-incubation 60 minutes; reaction 1 hour at room temperature. The procedure, abridged: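 Full-length C-Raf carrying Y340E/Y341E, co-expressed with 14-3-3ζ in Sf9 cells, at approximately 4 nM, with approximately 10 nM biotinylated kinase-dead MEK1 (K97R) and 1 μM ATP, pH 7.5. Compound preincubated 60 min, reaction 1 hour at room temperature. Phospho-MEK read by AlphaScreen; IC50 by non-linear regression.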

In another test the target is T2, b-Raf (V600E) (Homo sapiens, UniProt P15056, V600E).
T2 construct: made in house
In words: In vitro Raf activity determination (Alpha Screen, biotinylated kinase-dead MEK1 substrate), B-Raf. The class given is biochemical. The following applies: b-Raf (V600E) approximately 4 pM; ATP 10 μM; pre-incubation 60 minutes; reaction 3 hours at room temperature. A digest of the protocol:
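Activated b-Raf(V600E) (~4 pM) pre-incubated 60 min with compound and biotinylated kinase-dead (K97R) MEK1 (~10 nM), then reacted 3 h at room temperature with 10 μM ATP in 50 mM Tris pH 7.5, 15 mM MgCl2, 0.01% BSA, 1 mM DTT. Phospho-MEK detected by AlphaScreen; IC50 by non-linear regression.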

T2 sequence (P15056 whole entry V600E): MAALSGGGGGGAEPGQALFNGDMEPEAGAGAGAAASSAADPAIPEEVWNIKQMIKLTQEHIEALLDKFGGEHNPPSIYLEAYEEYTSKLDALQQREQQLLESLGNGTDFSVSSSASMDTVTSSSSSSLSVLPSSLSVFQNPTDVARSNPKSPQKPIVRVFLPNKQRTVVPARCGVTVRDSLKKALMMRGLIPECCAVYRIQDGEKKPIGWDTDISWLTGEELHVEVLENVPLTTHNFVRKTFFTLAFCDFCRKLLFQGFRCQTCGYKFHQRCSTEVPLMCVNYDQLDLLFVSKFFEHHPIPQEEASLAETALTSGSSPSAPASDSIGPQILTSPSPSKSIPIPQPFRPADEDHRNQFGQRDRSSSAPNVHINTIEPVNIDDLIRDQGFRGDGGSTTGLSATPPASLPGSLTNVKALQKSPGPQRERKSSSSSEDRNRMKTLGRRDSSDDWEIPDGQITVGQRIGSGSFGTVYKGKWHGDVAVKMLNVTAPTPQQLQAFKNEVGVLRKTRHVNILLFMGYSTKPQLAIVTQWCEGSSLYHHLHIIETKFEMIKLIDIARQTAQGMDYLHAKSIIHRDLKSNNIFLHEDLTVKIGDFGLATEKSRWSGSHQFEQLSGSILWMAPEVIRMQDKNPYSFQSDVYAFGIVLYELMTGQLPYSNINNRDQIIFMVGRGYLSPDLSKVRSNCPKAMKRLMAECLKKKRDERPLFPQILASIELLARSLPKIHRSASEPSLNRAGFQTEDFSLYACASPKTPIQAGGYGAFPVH
T1 sequence (P04049 whole entry Y340E/Y341E): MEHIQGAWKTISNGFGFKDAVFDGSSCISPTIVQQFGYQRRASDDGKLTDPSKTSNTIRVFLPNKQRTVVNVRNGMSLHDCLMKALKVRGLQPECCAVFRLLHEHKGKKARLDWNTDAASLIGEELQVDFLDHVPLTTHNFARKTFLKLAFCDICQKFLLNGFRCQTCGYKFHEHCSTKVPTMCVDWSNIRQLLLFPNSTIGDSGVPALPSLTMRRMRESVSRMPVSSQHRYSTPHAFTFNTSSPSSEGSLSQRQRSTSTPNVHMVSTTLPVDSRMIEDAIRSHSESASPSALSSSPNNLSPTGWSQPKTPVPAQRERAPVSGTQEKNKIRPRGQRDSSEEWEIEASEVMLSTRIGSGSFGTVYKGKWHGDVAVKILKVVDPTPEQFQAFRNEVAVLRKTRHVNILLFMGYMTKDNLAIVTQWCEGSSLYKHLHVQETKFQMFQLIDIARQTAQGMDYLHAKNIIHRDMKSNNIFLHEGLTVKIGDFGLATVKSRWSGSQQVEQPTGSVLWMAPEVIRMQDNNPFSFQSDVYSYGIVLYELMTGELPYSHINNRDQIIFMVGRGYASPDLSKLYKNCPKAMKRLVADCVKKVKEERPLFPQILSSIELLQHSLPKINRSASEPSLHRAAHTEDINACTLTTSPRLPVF
T1 sequence (P63104 whole entry partner): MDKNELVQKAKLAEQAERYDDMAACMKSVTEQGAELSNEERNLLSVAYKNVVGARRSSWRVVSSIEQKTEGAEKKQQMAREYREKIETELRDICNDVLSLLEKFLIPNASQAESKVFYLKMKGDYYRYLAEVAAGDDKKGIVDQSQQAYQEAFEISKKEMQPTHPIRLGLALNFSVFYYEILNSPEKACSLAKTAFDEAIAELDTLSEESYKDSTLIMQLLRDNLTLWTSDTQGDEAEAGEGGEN

Take `Cc1cc(CC(=O)Nc2ccc(C)c(-c3cnc(N(C)C)c(C#N)c3)c2)on1` [Example 257, N-(3-(5-cyano-6-(dimethylamino)pyridin-3-yl)-4-methylphenyl)-2-(3-methylisoxazol-5-yl)acetamide]: the IC50 (in general, the midpoint of a concentration-inhibition curve) against C-RAF is 1.36 nM; against b-Raf (V600E), 12.9 nM.
For the molecule `Cc1ncc(NC(=O)c2cccc(S(C)(=O)=O)c2)cc1-c1cnc(N2CC(C)(O)C2)c(C#N)c1` [Example 187, N-(5′-cyano-6′-(3-hydroxy-3-methylazetidin-1-yl)-2-methyl-[3,3′-bipyridin]-5-yl)-3-(methylsulfonyl) benzamide], the half-inhibitory concentration (IC50) against C-RAF was 4.2 nM; against b-Raf (V600E), 26.6 nM.
Taken in the same sequence, the figures for `Cc1ncc(NC(=O)c2cc(C(C)(C)C#N)ccn2)cc1-c1cnc(N2CCOCC2)c(C#N)c1` [Example 230, N-(5′-cyano-2-methyl-6′-morpholino-[3,3′-bipyridin]-5-yl)-4-(2-cyanopropan-2-yl)picolinamide] were 0.384 nM and 2.62 nM.
Take `Cc1ccc(NC(=O)c2cnnc(C(F)(F)F)c2)cc1-c1cnc(NC2CCOCC2)c(C#N)c1` [Example 174, N-(3-(5-cyano-6-((tetrahydro-2H-pyran-4-yl)amino)pyridin-3-yl)-4-methylphenyl)-6-(trifluoromethyl) pyridazine-4-carboxamide]: the half-inhibitory concentration (IC50) at C-RAF worked out at 0.177 nM; on b-Raf (V600E) it was 0.576 nM.
Take `Cc1ncc(NC(=O)c2cnnc(C(F)(F)F)c2)cc1-c1cnc(NC2CCOCC2)c(C#N)c1` [Example 175, N-(5′-cyano-2-methyl-6′-((tetrahydro-2H-pyran-4-yl)amino)-[3,3′-bipyridin]-5-yl)-6-(trifluoromethyl) pyridazine-4-carboxamide]: the half-maximal inhibitory concentration (IC50) on C-RAF is 1.25 nM; at b-Raf (V600E) it was 4.74 nM.
Turning to `Cc1ncc(NC(=O)c2ccnc(C(F)(F)F)c2)cc1-c1cnc(N2CC(O)C2)c(C#N)c1` [Example 69, N-(5′-cyano-6′-(3-hydroxyazetidin-1-yl)-2-methyl-[3,3′-bipyridin]-5-yl)-2-(trifluoromethyl) isonicotinamide], the figures for the IC50 against C-RAF and against b-Raf (V600E) were 0.46 nM and 2.56 nM, respectively.
Taken in the same sequence, the figures for `Cc1ccc(NC(=O)c2cc(C(C)(C)O)ccn2)cc1-c1cnc(N2CC(C)(O)C2)c(C#N)c1` [Example 236, N-(3-(5-cyano-6-(3-hydroxy-3-methylazetidin-1-yl)pyridin-3-yl)-4-methylphenyl)-4-(2-hydroxypropan-2-yl)picolinamide] were 1.55 nM and 5.78 nM.
With `Cc1ncc(NC(=O)c2ccnc(C3(C#N)CC3)c2)cc1-c1cnc(N2CCOCC2)c(C#N)c1` [Example 146, N-(5′-cyano-2-methyl-6′-morpholino-[3,3′-bipyridin]-5-yl)-2-(1-cyanocyclopropyl) isonicotinamide], the concentration for half-maximal inhibition (IC50) is 0.262 nM at C-RAF and 1.33 nM on b-Raf (V600E).
In the same order, the values of `Cc1ncc(NC(=O)c2ccnc(C(C)(C)C#N)c2)cc1-c1cnc(NC2COC2)c(C#N)c1` [Example 80, N-(5′-cyano-2-methyl-6′-(oxetan-3-ylamino)-[3,3′-bipyridin]-5-yl)-2-(2-cyanopropan-2-yl)isonicotinamide] are 1.93 nM and 12.6 nM.
As to `Cc1ccc(NC(=O)c2ccnc(C(F)(F)F)c2)cc1-c1cnc(N2CC(O)C2)c(C#N)c1` [Example 63, N-(3-(5-cyano-6-(3-hydroxyazetidin-1-yl)pyridin-3-yl)-4-methylphenyl)-2-(trifluoromethyl) isonicotinamide], the IC50 is 0.121 nM at C-RAF and 0.488 nM on b-Raf (V600E).
`Cc1ccc(NC(=O)c2ccnc(S(C)(=O)=O)c2)cc1-c1cnc(N2CCNCC2)c(C#N)c1` [Example 152, N-(3-(5-cyano-6-(piperazin-1-yl)pyridin-3-yl)-4-methylphenyl)-2-(methylsulfonyl) isonicotinamide]: the IC50 at C-RAF came out at 0.702 nM; at b-Raf (V600E), 5.68 nM.

Values taken from patent US10392404B2, “Compounds and compositions as kinase inhibitors” (NOVARTIS AG, priority 2014, dated 2019).
